Test results published in PubChem BioAssay (NCI).
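Tested at 5 concentrations; 48 h exposure; 96-well plates; endpoints linearly interpolated, else capped at highest concentration. TGI: total growth inhibition.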 Where a SMILES comes first, the peptide text is derived from it. [ ]: non-standard residue; d: D form. The star is where a group is joined. X28 = COC1=CC(=O)N(C(=O)[C@@H](O*)C(C)C)[C@H]1Cc1ccccc1; NMeL = CN[C@@H](CC(C)C)C(=O)O; Cbz = O=C(OCc1ccccc1)*

What was measured:
Test in all cases: inhibition of tumour cell growth, NCI panel, 48 h
786-0 renal = system: 786-0 renal
A549 NSCLC = system: A549 NSCLC
ACHN renal = system: ACHN renal
BT-549 breast = system: BT-549 breast
CAKI-1 renal = system: CAKI-1 renal
CCRF-CEM leukemia = system: CCRF-CEM leukemia
COLO 205 colon = system: COLO 205 colon
DU-145 prostate = system: DU-145 prostate
EKVX NSCLC = system: EKVX NSCLC
HCC-2998 colon = system: HCC-2998 colon
HCT-116 colon = system: HCT-116 colon
HCT-15 colon = system: HCT-15 colon
HOP-62 NSCLC = system: HOP-62 NSCLC
HOP-92 NSCLC = system: HOP-92 NSCLC
HS 578T breast = system: HS 578T breast
HT29 colon = system: HT29 colon
IGROV1 ovarian = system: IGROV1 ovarian
K-562 leukemia = system: K-562 leukemia
KM12 colon = system: KM12 colon
LOX IMVI melanoma = system: LOX IMVI melanoma
M14 melanoma = system: M14 melanoma
MALME-3M melanoma = system: MALME-3M melanoma
MCF7 breast = system: MCF7 breast
MDA-MB-231 breast = system: MDA-MB-231 breast
MDA-MB-435 = system: MDA-MB-435
MDA-N = system: MDA-N
MOLT-4 leukemia = system: MOLT-4 leukemia
NCI-H226 lung = system: NCI-H226 lung
NCI-H23 lung = system: NCI-H23 lung
NCI-H460 lung = system: NCI-H460 lung
NCI-H522 lung = system: NCI-H522 lung
NCI/ADR-RES ovarian = system: NCI/ADR-RES ovarian
OVCAR-3 ovarian = system: OVCAR-3 ovarian
OVCAR-4 ovarian = system: OVCAR-4 ovarian
OVCAR-5 ovarian = system: OVCAR-5 ovarian
OVCAR-8 ovarian = system: OVCAR-8 ovarian
PC-3 prostate = system: PC-3 prostate
RPMI-8226 leukemia = system: RPMI-8226 leukemia
RXF 393 renal = system: RXF 393 renal
SF-268 CNS = system: SF-268 CNS
SF-295 CNS = system: SF-295 CNS
SF-539 CNS = system: SF-539 CNS
SK-MEL-2 melanoma = system: SK-MEL-2 melanoma
SK-MEL-28 melanoma = system: SK-MEL-28 melanoma
SK-MEL-5 melanoma = system: SK-MEL-5 melanoma
SK-OV-3 ovarian = system: SK-OV-3 ovarian
SN12C renal = system: SN12C renal
SNB-19 CNS = system: SNB-19 CNS
SNB-75 CNS = system: SNB-75 CNS
SR leukemia = system: SR leukemia
SW-620 colon = system: SW-620 colon
T-47D breast = system: T-47D breast
TK-10 renal = system: TK-10 renal
U251 CNS = system: U251 CNS
UACC-257 melanoma = system: UACC-257 melanoma
UACC-62 melanoma = system: UACC-62 melanoma
UO-31 renal = system: UO-31 renal
A498 renal = system: A498 renal
HL-60(TB) leukemia = system: HL-60(TB) leukemia

Q: With `COc1cc(C2c3cc4c(cc3OC(N3CCOCC3)C2C)OCO4)cc(OC)c1OC` (stereo not drawn) as the molecule, how does the TGI (786-0 renal) read?
A: 28.6 µM

Q: What about the TGI (A549 NSCLC) of the same molecule?
A: > 69.2 µM

Q: And the TGI (ACHN renal)?
A: 50.3 µM

Q: And the TGI (BT-549 breast)?
A: 65.8 µM

Q: What about the TGI (CAKI-1 renal) of the same molecule?
A: 23.3 µM

Q: What about the TGI (CCRF-CEM leukemia) of the same molecule?
A: > 100 µM

Q: And the TGI (COLO 205 colon)?
A: > 71.3 µM

Q: And the TGI (DU-145 prostate)?
A: > 49.6 µM

Q: What about the TGI (EKVX NSCLC) of the same molecule?
A: > 100 µM

Q: And the TGI (HCC-2998 colon)?
A: 4.35 µM

Q: And the TGI (HCT-116 colon)?
A: 12.7 µM

Q: What about the TGI (HCT-15 colon) of the same molecule?
A: > 40.3 µM

Q: And the TGI (HOP-62 NSCLC)?
A: 52.8 µM

Q: And the TGI (HOP-92 NSCLC)?
A: 60.2 µM

Q: And the TGI (HS 578T breast)?
A: 722 nM

Q: What about the TGI (HT29 colon) of the same molecule?
A: 7.51 µM

Q: What about the TGI (IGROV1 ovarian) of the same molecule?
A: 47.7 µM

Q: And the TGI (K-562 leukemia)?
A: > 54.3 µM

Q: What about the TGI (KM12 colon) of the same molecule?
A: 14 µM

Q: What about the TGI (LOX IMVI melanoma) of the same molecule?
A: > 53.3 µM

Q: What about the TGI (M14 melanoma) of the same molecule?
A: 44.1 µM

Q: And the TGI (MALME-3M melanoma)?
A: > 100 µM

Q: What about the TGI (MCF7 breast) of the same molecule?
A: > 77 µM

Q: And the TGI (MDA-MB-231 breast)?
A: 37.3 µM

Q: What about the TGI (MDA-MB-435) of the same molecule?
A: 549 nM

Q: And the TGI (MDA-N)?
A: 439 nM

Q: And the TGI (MOLT-4 leukemia)?
A: > 38.2 µM

Q: And the TGI (NCI-H226 lung)?
A: 11.2 µM

Q: And the TGI (NCI-H23 lung)?
A: 18.2 µM

Q: And the TGI (NCI-H460 lung)?
A: 10.2 µM

Q: And the TGI (NCI-H522 lung)?
A: 9.61 µM

Q: And the TGI (NCI/ADR-RES ovarian)?
A: 2010 nM

Q: What about the TGI (OVCAR-3 ovarian) of the same molecule?
A: > 23 µM

Q: What about the TGI (OVCAR-4 ovarian) of the same molecule?
A: > 100 µM

Q: What about the TGI (OVCAR-5 ovarian) of the same molecule?
A: > 65.7 µM

Q: And the TGI (OVCAR-8 ovarian)?
A: 59.2 µM

Q: What about the TGI (PC-3 prostate) of the same molecule?
A: > 100 µM

Q: And the TGI (RPMI-8226 leukemia)?
A: > 23.7 µM

Q: And the TGI (RXF 393 renal)?
A: 1.22 µM

Q: And the TGI (SF-268 CNS)?
A: > 100 µM

Q: What about the TGI (SF-295 CNS) of the same molecule?
A: 10.4 µM

Q: And the TGI (SF-539 CNS)?
A: 1.69 µM

Q: And the TGI (SK-MEL-2 melanoma)?
A: 28.2 µM

Q: What about the TGI (SK-MEL-28 melanoma) of the same molecule?
A: > 100 µM

Q: What about the TGI (SK-MEL-5 melanoma) of the same molecule?
A: 6.78 µM

Q: And the TGI (SK-OV-3 ovarian)?
A: 23.4 µM

Q: And the TGI (SN12C renal)?
A: > 100 µM

Q: What about the TGI (SNB-19 CNS) of the same molecule?
A: 18.7 µM

Q: What about the TGI (SNB-75 CNS) of the same molecule?
A: > 48.2 µM

Q: What about the TGI (SR leukemia) of the same molecule?
A: > 100 µM

Q: What about the TGI (SW-620 colon) of the same molecule?
A: > 100 µM

Q: What about the TGI (T-47D breast) of the same molecule?
A: > 100 µM

Q: What about the TGI (TK-10 renal) of the same molecule?
A: 63.9 µM

Q: And the TGI (U251 CNS)?
A: > 20.1 µM

Q: And the TGI (UACC-257 melanoma)?
A: > 59.7 µM

Q: What about the TGI (UACC-62 melanoma) of the same molecule?
A: 56.5 µM

Q: And the TGI (UO-31 renal)?
A: 55.2 µM

Q: What does the source list for `COC1=CC(=O)N(C(=O)[C@@H](OC(=O)[C@@H]2CCCN2C(=O)[C@@H]2CCCN2C(=O)[C@H](CC(C)C)N(C)C(=O)[C@@H](NC(=O)[C@@H](NC(=O)OCc2ccccc2)C(C)C)C(C)C)C(C)C)[C@H]1Cc1ccccc1` (Cbz-VV[NMeL]PP-X28)?
A: TGI (786-0 renal): > 100 µM; TGI (A498 renal): 56.1 µM; TGI (A549 NSCLC): > 100 µM; TGI (ACHN renal): > 100 µM; TGI (BT-549 breast): > 100 µM; TGI (CAKI-1 renal): > 100 µM; TGI (CCRF-CEM leukemia): > 100 µM; TGI (COLO 205 colon): > 100 µM; TGI (DU-145 prostate): > 100 µM; TGI (EKVX NSCLC): > 100 µM; TGI (HCC-2998 colon): > 100 µM; TGI (HCT-116 colon): > 100 µM; TGI (HCT-15 colon): > 100 µM; TGI (HL-60(TB) leukemia): > 100 µM; TGI (HOP-62 NSCLC): > 100 µM; TGI (HOP-92 NSCLC): > 100 µM; TGI (HS 578T breast): > 100000 nM; TGI (HT29 colon): > 100 µM; TGI (IGROV1 ovarian): > 100 µM; TGI (K-562 leukemia): > 100 µM; TGI (KM12 colon): > 100 µM; TGI (LOX IMVI melanoma): > 100 µM; TGI (M14 melanoma): > 100 µM; TGI (MALME-3M melanoma): > 100 µM; TGI (MCF7 breast): > 100 µM; TGI (MDA-MB-231 breast): 61.9 µM; TGI (MDA-MB-435): > 100000 nM; TGI (MDA-N): > 100000 nM; TGI (NCI-H226 lung): > 100 µM; TGI (NCI-H23 lung): > 100 µM; TGI (NCI-H460 lung): > 100 µM; TGI (NCI-H522 lung): > 100 µM; TGI (NCI/ADR-RES ovarian): > 100000 nM; TGI (OVCAR-3 ovarian): > 100 µM; TGI (OVCAR-4 ovarian): > 100 µM; TGI (OVCAR-5 ovarian): > 100 µM; TGI (OVCAR-8 ovarian): > 100 µM; TGI (PC-3 prostate): 76.8 µM; TGI (RPMI-8226 leukemia): > 100 µM; TGI (RXF 393 renal): 38.9 µM; TGI (SF-268 CNS): > 100 µM; TGI (SF-295 CNS): > 100 µM; TGI (SF-539 CNS): 43.8 µM; TGI (SK-MEL-2 melanoma): 28.6 µM; TGI (SK-MEL-28 melanoma): > 100 µM; TGI (SK-OV-3 ovarian): > 100 µM; TGI (SN12C renal): > 100 µM; TGI (SNB-19 CNS): > 100 µM; TGI (SNB-75 CNS): 9.27 µM; TGI (SW-620 colon): > 100 µM; TGI (T-47D breast): > 100 µM; TGI (TK-10 renal): > 100 µM; TGI (U251 CNS): > 100 µM; TGI (UACC-257 melanoma): > 100 µM; TGI (UACC-62 melanoma): > 100 µM; TGI (UO-31 renal): > 100 µM
